Results on ten molecules are retold here after patent publication US12454509B2, “Local anesthetics with selective-sensory nerve blockade” (Children's Medical Center Corporation, priority 2019, dated 2025).

Each structure is given as a SMILES string. pIC50: −log10 of the molar value.

In one data set the test system is C2C12 Mouse myoblasts. The experiment in a line: Cytotoxicity in C2C12 myotubules. Conditions: C2C12 cells; for cytotoxicity compared with ropivacaine and bupivacaine (in words): FIG. 2 / Table 2. Type of data set: cell-based. As for the experimental part:
(§1) C2C12 Mouse myoblasts [American Type Culture Collection (ATCC) CRL-1772] were cultured to proliferate in DMEM supplemented with 20% FBS and 100 Penicillin Streptomycin. Cell culture supplies were obtained from Invitrogen, unless otherwise noted. Cells were plated at 50,000 cells per mL in DMEM with 2% horse serum and 1% Penn Strep, and left to differentiate into myotubules for 10-14 days. During differentiation, media were exchanged every 2 to 3 days. Cell viability and proliferation were studied after exposures to drugs for up to 24 h. PC12 cells (ATCC, CRL-1721) originating from rat adrenal gland pheochromocytoma were grown in 24-well tissue culture dishes (CellBind; Corning) with F-12K (ATCC) supplemented with 12.5% horse serum (Gibco), 2.5% FBS (Gibco), and 1% Penn Strep (Sigma). For neuronal induction (PC12), cells were seeded at a relative low density of 5×10^4 cells/cm2 and 50 ng/mL NGF was added 24 h after seeding. Cell viability and proliferation were evaluated as for C2C12 cells. Experiments with PC12 cells were conducted for up to 24 hours.

Another data set concerns PC12 cells. As to the kind of experiment: Cytotoxicity in PC12 cells. Type of data set: cell-based, rat. Conditions: for cytotoxicity compared with ropivacaine and bupivacaine (in words): FIG. 1 / Table 2. The procedure: as §1
Data set [1] relates to sciatic nerve. The experiment in a line: Sciatic nerve block in rats: duration of thermal nociceptive (sensory) block, modified hotplate test. Conditions: for Sensory:Motor Block Ratio: rat sciatic nerve block; for Block Duration (min) Sensory: rat sciatic nerve injection 0.3 mL. Type of data set: in vivo, rat. From the text: (§2) Sciatic Nerve Block and Neurobehavioral Testing. Animals were cared for in compliance with protocols approved by the Children's Hospital Animal Care and Use Committee, and the Massachusetts Institute of Technology Committee on Animal Care, which conformed to guidelines of the International Association for the Study of Pain. Adult male Sprague-Dawley rats (Charles River Laboratories) weighing 320-450 g were housed in groups, in a 6 AM to 6 PM light-dark cycle. Under brief isoflurane-oxygen anesthesia, a 23G needle was introduced postero-medial to the greater trochanter, until bone was contacted, and 0.3 mL of test solution was injected over the sciatic nerve. Thermal nociception was assessed by a modified hotplate test, and motor function via a weight-bearing test. […] Motor strength was assessed with a weight-bearing test. In brief, the animal was held over a digital balance such that it could bear weight with 1 hind paw at a time. The maximum weight that it could bear was recorded. The duration of motor blockade was defined as the time for weight bearing to return halfway to normal from maximal block. The halfway point for each rat was defined as […].

The test system of data set [2] is sciatic nerve. As to the kind of experiment: Sciatic nerve block in rats: duration of motor block, weight-bearing test. Type of data set: in vivo. The following applies: rat sciatic nerve injection 0.3 mL.
Excerpt: as §2

Consider `Br.CC[N+](CC)(CC(=O)Nc1c(C)cccc1C)CC(=O)OC` [Compound 1, 2-((2,6-Dimethylphenyl)amino)-N,N-diethyl-N-(2-methoxy-2-oxoethyl)-2-oxoethan-1-aminium bromide], for which the “cytotoxicity compared with ropivacaine and bupivacaine (in words)” value with C2C12 Mouse myoblasts was “significantly less cytotoxic than ropivacaine and bupivacaine”; with PC12 cells, “significantly less cytotoxic than ropivacaine and bupivacaine”.
Take `CCCC[N@+]1(CC(=O)OC)CCCC[C@H]1C(=O)Nc1c(C)cccc1C` (racemic) [2a + 2b, 1-Butyl-2-((2,6-dimethylphenyl)carbamoyl)-1-(2-methoxy-2-oxoethyl)piperidin-1-ium bromide]: the “cytotoxicity compared with ropivacaine and bupivacaine (in words)” value was “significantly less cytotoxic than ropivacaine and bupivacaine” with C2C12 Mouse myoblasts; “significantly less cytotoxic than ropivacaine and bupivacaine” in the data set with PC12 cells. In addition, the “Sensory:Motor Block Ratio” value in the data set on sciatic nerve [1] (dose conc 5 mM) is listed as “∞”. Further, the “Block Duration (min) Sensory” value in the data set on sciatic nerve [1] (dose conc 5 mM) was 30 ± 12 min; with sciatic nerve [1] (dose conc 7.5 mM), 120 ± 34 min; in the data set on sciatic nerve [1] (dose conc 10 mM) it was 150 ± 51 min. Further, the “Block Duration (min) Motor” value was 0 min with sciatic nerve [2] (dose conc 5 mM), 30 ± 15 min in the data set on sciatic nerve [2] (dose conc 7.5 mM) and 50 ± 23 min in the data set on sciatic nerve [2] (dose conc 10 mM).
In the case of `CCC[N@@+]1(CC(=O)NC)CCCC[C@H]1C(=O)Nc1c(C)cccc1C` [Compound 26Sa, 2-((2,6-dimethylphenyl)carbamoyl)-1-(2-(methylamino)-2-oxoethyl)-1-propyl-1-piperidin-2-ylium bromide], the “cytotoxicity compared with ropivacaine and bupivacaine (in words)” value in the data set on C2C12 Mouse myoblasts was “significantly less cytotoxic than ropivacaine and bupivacaine”; in the data set with PC12 cells it was “significantly less cytotoxic than ropivacaine and bupivacaine”. The pIC50 in the data set on C2C12 Mouse myoblasts (Mus musculus, cytotoxicity, exposure up to 24 h) is 3.00; with PC12 cells (Rattus norvegicus, PC-12, cytotoxicity, exposure up to 24 h), 2.92. The “Block Duration (min) Sensory” value with sciatic nerve [1] (dose conc 10 mM) worked out at 180 min. Further, the “Block Duration (min) Motor” value in the data set with sciatic nerve [2] (dose conc 10 mM) was found to be 140 min.
`CCC[N@+]1(CC(=O)OC)CCCC[C@H]1C(=O)Nc1c(C)cccc1C.[Br-]` (racemic) [4Sa + 4Sb, 2-((2,6-Dimethylphenyl)carbamoyl)-1-(2-methoxy-2-oxoethyl)-1-propylpiperidin-1-ium bromide]: the “cytotoxicity compared with ropivacaine and bupivacaine (in words)” value is “significantly less cytotoxic than ropivacaine and bupivacaine” in the data set on C2C12 Mouse myoblasts; “significantly less cytotoxic than ropivacaine and bupivacaine” with PC12 cells. In addition, in the data set with sciatic nerve [1] (dose conc 5 mM), the “Sensory:Motor Block Ratio” value is on record as “∞”. Further, the “Block Duration (min) Sensory” value in the data set with sciatic nerve [1] (dose conc 5 mM) worked out at 34 ± 13 min; with sciatic nerve [1] (dose conc 7.5 mM), 108 ± 27 min; in the data set on sciatic nerve [1] (dose conc 10 mM), 220 ± 40 min; in the data set on sciatic nerve [1] (dose conc 15 mM), 254 ± 48 min. In addition, the “Block Duration (min) Motor” value with sciatic nerve [2] (dose conc 5 mM) is given as 0 min; in the data set with sciatic nerve [2] (dose conc 7.5 mM) it was 10 ± 10 min; with sciatic nerve [2] (dose conc 10 mM) it was 78 ± 24 min; with sciatic nerve [2] (dose conc 15 mM), 69 ± 20 min.
Consider `CCCC[N+]1(COC(C)=O)CCCCC1C(=O)Nc1c(C)cccc1C.[Br-]` (stereo not shown) [Compound 9, 1-(Acetoxymethyl)-1-butyl-2-((2,6-dimethylphenyl)carbamoyl)piperidin-1-ium bromide], for which the “Block Duration (min) Sensory” value with sciatic nerve [1] (dose conc 5 mM) worked out at 65 ± 23 min; in the data set with sciatic nerve [1] (dose conc 10 mM) it was 120 ± 53 min; in the data set with sciatic nerve [1] (dose conc 15 mM), 125 ± 51 min. The “Block Duration (min) Motor” value in the data set with sciatic nerve [2] (dose conc 5 mM) is 25 ± 19 min; with sciatic nerve [2] (dose conc 10 mM) it was 75 ± 39 min; with sciatic nerve [2] (dose conc 15 mM), 85 ± 36 min.
For `COC(=O)C[N@@+]1(C)CCCC[C@@H]1C(=O)Nc1c(C)cccc1C` (racemic) [Compound 3b, 2-((2,6-Dimethylphenyl)carbamoyl)-1-(2-methoxy-2-oxoethyl)-1-methylpiperidin-1-ium bromide], the “Block Duration (min) Sensory” value with sciatic nerve [1] (dose conc 10 mM) is listed as 450 ± 60 min. The “Block Duration (min) Motor” value with sciatic nerve [2] (dose conc 10 mM) is reported as 300 ± 60 min.
`CCC[N+]1(COC(C)=O)CCCC[C@H]1C(=O)Nc1c(C)cccc1C.[Br-]` (stereo partly shown) [Compound 10S, 1-(Acetoxymethyl)-2-((2,6-dimethylphenyl)carbamoyl)-1-propylpiperidin-1-ium bromide]: the “cytotoxicity compared with ropivacaine and bupivacaine (in words)” value is “significantly less cytotoxic than ropivacaine and bupivacaine” in the data set on C2C12 Mouse myoblasts; “significantly less cytotoxic than ropivacaine and bupivacaine” with PC12 cells. Moreover, the “Block Duration (min) Sensory” value with sciatic nerve [1] (dose conc 5 mM) was 55 ± 23 min; in the data set with sciatic nerve [1] (dose conc 10 mM) it was 105 ± 53 min. For the same molecule, the “Block Duration (min) Motor” value in the data set on sciatic nerve [2] (dose conc 5 mM) is reported as 15 ± 15 min; in the data set with sciatic nerve [2] (dose conc 10 mM), 65 ± 34 min.
Regarding `CCCC(=O)OC[N+]1(CCC)CCCC[C@H]1C(=O)Nc1c(C)cccc1C.[Cl-]` (stereo in doubt) [Compound 11S, 1-((Butyryloxy)methyl)-2-((2,6-dimethylphenyl)carbamoyl)-1-propylpiperidin-1-ium chloride], the “cytotoxicity compared with ropivacaine and bupivacaine (in words)” value in the data set on C2C12 Mouse myoblasts is “significantly less cytotoxic than ropivacaine and bupivacaine”; with PC12 cells it was “significantly less cytotoxic than ropivacaine and bupivacaine”. The “Block Duration (min) Sensory” value with sciatic nerve [1] (dose conc 10 mM) is recorded as 135 ± 56 min. The “Block Duration (min) Motor” value in the data set on sciatic nerve [2] (dose conc 10 mM) is 90 ± 44 min.
For the molecule `COC(=O)C[N@@+]1(C)CCCC[C@H]1C(=O)Nc1c(C)cccc1C` (racemic) [Compound 3a, 2-((2,6-Dimethylphenyl)carbamoyl)-1-(2-methoxy-2-oxoethyl)-1-methylpiperidin-1-ium bromide], in the data set on sciatic nerve [1] (dose conc 10 mM), the “Block Duration (min) Sensory” value came out at 0 min. Moreover, the “Block Duration (min) Motor” value in the data set with sciatic nerve [2] (dose conc 10 mM) is 0 min.
Turning to `CCCN1CCCC[C@H]1C(=O)Nc1c(C)cccc1C` (single isomer, unassigned) [(S)-Ropivacaine, reference compound], the “Block Duration (min) Sensory” value worked out at 150 ± 35 min in the data set with sciatic nerve [1] (dose conc 10 mM) and 215 ± 31 min with sciatic nerve [1] (dose conc 15 mM). Besides, the entries for the “Block Duration (min) Motor” value with sciatic nerve [2] (dose conc 10 mM) and in the data set with sciatic nerve [2] (dose conc 15 mM) were 150 ± 38 min and 210 ± 28 min, respectively.
